According to patent US11299497B2, “Substituted tetrahydropyran dihydrothienopyrimidines and their use as phosphodiesterase inhibitors” (UNION therapeutics A/S, priority 2017, dated 2022):
pIC50: −log10 of the molar value.

Assays:
[1] = target: human PDE41 Dcatalytic domain (UniProt no. Q08499 [S380-L740]) (Homo sapiens (Human), UniProt Q08499); assay: PDE4 Assay (TR-FRET, FAM-cAMP cleavage); type: biochemical; settings: human PDE4D catalytic domain, cAMP / FAM-cAMP substrate, read-out: PDE4 IC50 range
Sequence of human PDE41 Dcatalytic domain (Q08499 380-740): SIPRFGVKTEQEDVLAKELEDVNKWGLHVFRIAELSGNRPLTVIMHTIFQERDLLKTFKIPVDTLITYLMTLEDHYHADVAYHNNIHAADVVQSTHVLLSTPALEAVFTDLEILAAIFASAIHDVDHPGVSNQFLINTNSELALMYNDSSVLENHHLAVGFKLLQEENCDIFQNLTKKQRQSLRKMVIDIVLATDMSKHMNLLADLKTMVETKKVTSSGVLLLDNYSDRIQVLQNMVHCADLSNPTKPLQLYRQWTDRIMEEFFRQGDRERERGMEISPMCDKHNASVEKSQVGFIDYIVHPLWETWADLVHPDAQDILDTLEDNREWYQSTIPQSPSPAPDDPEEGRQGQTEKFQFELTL
Description: The human PDE41 Dcatalytic domain (UniProt no. Q08499 [S380-L740]) was incubated with a mixture of non-labelled cAMP (cyclic adenosine monophosphate) and fluorescein amidite (FAM) conjugated cAMP and titrated test or reference compound. Following brief incubation the enzymatic reaction was stopped by addition of binding buffer containing nanoparticles with immobilized trivalent metal ions capable of binding 1) AMP phospho groups and 2) terbium (Tb) donor fluorophores. Subsequent excitation of the Tb donor triggers time-resolved FRET to adjacent FAM acceptor molecules resulting in light emission. In the presence of a PDE4 inhibitor, AMP generation was reduced resulting in a lower fluorescence signal. The cAMP phosphodiester is not bound by the detection system.
The results were calculated as the molar concentrations resulting in 50/inhibition of the substrate cleavage compared to controls samples, and are expressed as IC50 (nM).

[2] = tested on: TNF-α release, human peripheral blood mononuclear cells (PBMC); assay: TNF-α Release in LPS-stimulated PBMC; type: cell-based; settings: 30 minutes pre-incubation, lipopolysaccharide stimulation 18 hours, TR-FRET, read-out: TNF-α IC50 range
Description: Human peripheral blood mononuclear cells (PBMC) were isolated from buffy coats. The blood is mixed with saline at a ratio of 1:1, and the PBMC were isolated using Lymphoprep Tube™ (Nycomed, Norway). The PBMC were suspended in RPMI1640 with 0.5% human serum albumin, pen/strep and 2 mM L-glutamine at a concentration of 5×105 c/ml. The cells were pre-incubated for 30 minutes with the test compounds in 96 well tissue culture plates and stimulated for 18 hours with lipopolysaccharide 1 mg/ml (Sigma). TNF-α concentration in the supernatants was measured using homogeneous time-resolved fluorescence resonance (TR-FRET). The assay is quantified by measuring fluorescence at 665 nm (proportional to TNF-α concentration) and 620 nm (control).
Results were expressed as IC50 values calculated from inhibition curves using as positive controls the secretion in LPS stimulated wells and as negative controls the secretion in unstimulated cells.

CN(CCC1CCOCC1)c1nc2c(c(NC3CC4(COC4)C3)n1)[S+]([O-])CC2 (stereo not drawn) [Example 15, N2-methyl-N4-(6-oxaspiro[3.3]heptan-2-yl)-5-oxido-N2-(2-tetrahydropyran-4-ylethyl)-6,7-dihydrothieno[3,2-d]pyrimidin-5-ium-2,4-diamine]
pIC50 [1]: 7.30 to 8.00
pIC50 [2]: > 8.00

CN(CCC1CCOCC1)c1nc2c(c(NC3(C)CCC3)n1)[S+]([O-])CC2 (stereo not drawn) [Example 8, N2-methyl-N4-(1-methylcyclobutyl)-5-oxido-N2-(2-tetrahydropyran-4-ylethyl)-6,7-dihydrothieno[3,2-d]pyrimidin-5-ium-2,4-diamine]
pIC50 [1]: 7.30 to 8.00
pIC50 [2]: > 8.00

COc1cccc(Nc2nc(N(C)CCC3CCOCC3)nc3c2[S+]([O-])CC3)c1 (stereo not drawn) [Example 16, N4-(3-methoxyphenyl)-N2-methyl-5-oxido-N2-(2-tetrahydropyran-4-ylethyl)-6,7-dihydrothieno[3,2-d]pyrimidin-5-ium-2,4-diamine]
pIC50 [1]: > 8.00
pIC50 [2]: > 8.00

CN(CCC1CCOCC1)c1nc2c(c(NC(C)(C)CO)n1)[S+]([O-])CC2 (stereo not drawn) [Example 18, 2-methyl-2-[[2-[methyl(2-tetrahydropyran-4-ylethyl)amino]-5-oxido-6,7-dihydrothieno[3,2-d]pyrimidin-5-ium-4-yl]amino]propan-1-ol]
pIC50 [1]: < 7.00
pIC50 [2]: < 7.00

CN(CCC1CCOCC1)c1nc2c(c(NC3CCCCC3)n1)[S+]([O-])CC2 (stereo not drawn) [Example 17, N4-cyclohexyl-N2-methyl-5-oxido-N2-(2-tetrahydropyran-4-ylethyl)-6,7-dihydrothieno[3,2-d]pyrimidin-5-ium-2,4-diamine]
pIC50 [1]: > 8.00
pIC50 [2]: > 8.00

CN(CCC1CCOCC1)c1nc2c(c(NC(C)(C)C)n1)[S+]([O-])CC2 (stereo not drawn) [Example 3, N4-tert-butyl-N2-methyl-5-oxido-N2-(2-tetrahydropyran-4-ylethyl)-6,7-dihydrothieno[3,2-d]pyrimidin-5-ium-2,4-diamine]
pIC50 [1]: 7.30 to 8.00
pIC50 [2]: 7.30 to 8.00

CCN(CCC1CCOCC1)c1nc2c(c(NC3CCOCC3)n1)[S@@+]([O-])CC2 [Example 2, (5R)—N2-ethyl-5-oxido-N4-tetrahydropyran-4-yl-N2-(2-tetrahydropyran-4-ylethyl)-6,7-dihydrothieno[3,2-d]pyrimidin-5-ium-2,4-diamine]
pIC50 [1]: > 8.00
pIC50 [2]: > 8.00

CN(CCC1CCOCC1)c1nc2c(c(NC3(CO)CCC3)n1)[S+]([O-])CC2 (stereo not drawn) [Example 23, [1-[[2-[methyl(2-tetrahydropyran-4-ylethyl)amino]-5-oxido-6,7-dihydrothieno[3,2-d]pyrimidin-5-ium-4-yl]amino]cyclobutyl]methanol]
pIC50 [1]: < 7.00
pIC50 [2]: < 7.00

CC(C)CNc1nc(N(C)CCC2CCOCC2)nc2c1[S+]([O-])CC2 (stereo not drawn) [Example 7, N4-isobutyl-N2-methyl-5-oxido-N2-(2-tetrahydropyran-4-ylethyl)-6,7-dihydrothieno[3,2-d]pyrimidin-5-ium-2,4-diamine]
pIC50 [1]: 7.30 to 8.00
pIC50 [2]: 7.30 to 8.00

CN(CCC1CCOCC1)c1nc2c(c(NC3(C#N)CC3)n1)[S+]([O-])CC2 (stereo not drawn) [Example 11, 1-[[2-[methyl(2-tetrahydropyran-4-ylethyl)amino]-5-oxido-6,7-dihydrothieno[3,2-d]pyrimidin-5-ium-4-yl]amino]cyclopropanecarbonitrile]
pIC50 [1]: 7.30 to 8.00
pIC50 [2]: 7.30 to 8.00

CN(CCC1CCOCC1)c1nc2c(c(NC3CCOCC3)n1)[S+]([O-])CC2 (stereo in doubt) [Example 1, (5R)—N2-methyl-5-oxido-N4-tetrahydropyran-4-yl-N2-(2-tetrahydropyran-4-ylethyl)-6,7-dihydrothieno[3,2-d]pyrimidin-5-ium-2,4-diamine]
pIC50 [1]: 7.30 to 8.00
pIC50 [2]: 7.30 to 8.00

CC[C@@H](C)Nc1nc(N(C)CCC2CCOCC2)nc2c1[S+]([O-])CC2 (stereo partly drawn) [Example 13, N2-methyl-N4-[(1R)-1-methylpropyl]-5-oxido-N2-(2-tetrahydropyran-4-ylethyl)-6,7-dihydrothieno[3,2-d]pyrimidin-5-ium-2,4-diamine]
pIC50 [1]: 7.30 to 8.00
pIC50 [2]: > 8.00

CN(CCC1CCOCC1)c1nc2c(c(NC3(C)CC3)n1)[S+]([O-])CC2 (stereo not drawn) [Example 14, N2-methyl-N4-(1-methylcyclopropyl)-5-oxido-N2-(2-tetrahydropyran-4-ylethyl)-6,7-dihydrothieno[3,2-d]pyrimidin-5-ium-2,4-diamine]
pIC50 [1]: 7.30 to 8.00
pIC50 [2]: > 8.00

CN(CCC1CCOCC1)c1nc2c(c(NC3COC3)n1)[S+]([O-])CC2 (stereo not drawn) [Example 21, N2-methyl-N4-(oxetan-3-yl)-5-oxido-N2-(2-tetrahydropyran-4-ylethyl)-6,7-dihydrothieno[3,2-d]pyrimidin-5-ium-2,4-diamine]
pIC50 [1]: < 7.00
pIC50 [2]: 7.00 to 7.30

CN(CCC1CCOCC1)c1nc2c(c(NC3CCCC3)n1)[S+]([O-])CC2 (stereo not drawn) [Example 20, N4-cyclopentyl-N2-methyl-5-oxido-N2-(2-tetrahydropyran-4-ylethyl)-6,7-dihydrothieno[3,2-d]pyrimidin-5-ium-2,4-diamine]
pIC50 [1]: > 8.00
pIC50 [2]: > 8.00

CCCCNc1nc(N(C)CCC2CCOCC2)nc2c1[S+]([O-])CC2 (stereo not drawn) [Example 6, N4-butyl-N2-methyl-5-oxido-N2-(2-tetrahydropyran-4-ylethyl)-6,7-dihydrothieno[3,2-d]pyrimidin-5-ium-2,4-diamine]
pIC50 [1]: 7.30 to 8.00
pIC50 [2]: 7.30 to 8.00

CCCNc1nc(N(C)CCC2CCOCC2)nc2c1[S+]([O-])CC2 (stereo not drawn) [Example 4, N2-methyl-5-oxido-N4-propyl-N2-(2-tetrahydropyran-4-ylethyl)-6,7-dihydrothieno[3,2-d]pyrimidin-5-ium-2,4-diamine]
pIC50 [1]: 7.00 to 7.30
pIC50 [2]: 7.30 to 8.00

CC[C@H](C)Nc1nc(N(C)CCC2CCOCC2)nc2c1[S+]([O-])CC2 (stereo partly drawn) [Example 12, N2-methyl-N4-[(1S)-1-methylpropyl]-5-oxido-N2-(2-tetrahydropyran-4-ylethyl)-6,7-dihydrothieno[3,2-d]pyrimidin-5-ium-2,4-diamine]
pIC50 [1]: 7.30 to 8.00
pIC50 [2]: 7.30 to 8.00

CN(CCC1CCOCC1)c1nc2c(c(NC3CCC3)n1)[S+]([O-])CC2 (stereo not drawn) [Example 9, N4-cyclobutyl-N2-methyl-5-oxido-N2-(2-tetrahydropyran-4-ylethyl)-6,7-dihydrothieno[3,2-d]pyrimidin-5-ium-2,4-diamine]
pIC50 [1]: 7.30 to 8.00
pIC50 [2]: 7.30 to 8.00

CCNc1nc(N(C)CCC2CCOCC2)nc2c1[S+]([O-])CC2 (stereo not drawn) [Example 19, N4-ethyl-N2-methyl-5-oxido-N2-(2-tetrahydropyran-4-ylethyl)-6,7-dihydrothieno[3,2-d]pyrimidin-5-ium-2,4-diamine]
pIC50 [1]: < 7.00
pIC50 [2]: 7.00 to 7.30

CN(CCC1CCOCC1)c1nc2c(c(NC3(CO)CC3)n1)[S+]([O-])CC2 (stereo not drawn) [Example 24, [1-[[2-[methyl(2-tetrahydropyran-4-ylethyl)amino]-5-oxido-6,7-dihydrothieno[3,2-d]pyrimidin-5-ium-4-yl]amino]cyclopropyl]methanol]
pIC50 [1]: < 7.00
pIC50 [2]: < 7.00

CN(CCC1CCOCC1)c1nc2c(c(NC3(C#N)CCC3)n1)[S+]([O-])CC2 (stereo not drawn) [Example 10, 1-[[2-[methyl(2-tetrahydropyran-4-ylethyl)amino]-5-oxido-6,7-dihydrothieno[3,2-d]pyrimidin-5-ium-4-yl]amino]cyclobutanecarbonitrile]
pIC50 [1]: 7.30 to 8.00
pIC50 [2]: 7.30 to 8.00

CN(CCC1CCOCC1)c1nc2c(c(NC3(CO)CCCC3)n1)[S+]([O-])CC2 (stereo not drawn) [Example 22, [1-[[2-[methyl(2-tetrahydropyran-4-ylethyl)amino]-5-oxido-6,7-dihydrothieno[3,2-d]pyrimidin-5-ium-4-yl]amino]cyclopentyl]methanol]
pIC50 [1]: < 7.00
pIC50 [2]: < 7.00

CC(C)Nc1nc(N(C)CCC2CCOCC2)nc2c1[S+]([O-])CC2 (stereo not drawn) [Example 5, N4-isopropyl-N2-methyl-5-oxido-N2-(2-tetrahydropyran-4-ylethyl)-6,7-dihydrothieno[3,2-d]pyrimidin-5-ium-2,4-diamine]
pIC50 [1]: 7.30 to 8.00
pIC50 [2]: 7.30 to 8.00
